In publication PMC10857906, “PROTAC-mediated NR4A1 degradation as a novel strategy for cancer immunotherapy” (The Journal of Experimental Medicine, 2024):

Key:
[1] = Toxicity testing in non-tumor-bearing mice; type: in vivo, C57BL/6J mice
Method: (§1) For syngeneic tumor models, 5 × 10^5 cells MC38, Yumm1.7, and Yummer1.7, 1 × 10^5 cells of B16F10 were resuspended in PBS and implanted into 7–9-wk-old mice subcutaneously. For the tumor inhibition experiment, mice were treated with 1.8 mg/kg NR-V04 or 0.75 mg/kg celastrol by i.p. injection twice weekly. For the immune profile experiment, once tumors reached 0.5 cm in diameter, mice were treated with 1.8 mg/kg NR-V04 by i.p. injection twice weekly. For the toxicity experiment, male and female non-tumor-bearing mice were treated with 2 mg/kg NR-V04 for two doses in the first week and 5 mg/kg for another two doses in the second week. Blood samples were taken from the submandibular (facial) vein before each treatment and 42 days later for hematological analysis, and body weight was measured twice per week up to day 42. Mice were euthanized in accordance with the IACUC protocol once the largest tumors reached 2 cm in diameter, and tissues were collected for further analysis.
Mouse blood was prepared in microcentrifuge tubes containing PBS with 10 mM EDTA. Blood indices were analyzed using an automated hematology analyzer (Element HT5; Heska).
For H&E staining, mouse tissues were fixed in 10% formalin (SF98-4; Thermo Fisher Scientific) processed in the University of Florida Molecular Pathology Core. H&E staining was conducted using standard procedures. The sections were hydrated through xylene and a series of ethanol, followed by staining with H&E on slides.

MC38 tumors = test: MC38 colon cancer syngeneic tumor model; type: in vivo, mouse
Description: 7–9-wk-old C57BL/6J, B6.129S2-Ighm^tm1Cgn/J (002288), B6.129S2-Nr4a1^tm1Jmi/J (NR4A1^−/−, 006187), and NOD-SCID interleukin-2 receptor gamma null (NSG) mice were purchased from Jackson Laboratories. For all studies involving NR-V04 and celastrol, the compounds were formulated in 50% phosal PG, 45% miglyol 810N, and 5% polysorbate 80 and administered via i.p. injection.
as §1

Structure (SMILES): CC1=C(O)C(=O)C=C2C1=CC=C1[C@@]2(C)CC[C@@]2(C)[C@@H]3C[C@](C)(C(=O)NCCOCCOCCOCCOCC(=O)N[C@H](C(=O)N4C[C@H](O)C[C@H]4C(=O)N[C@@H](C)c4ccc(-c5scnc5C)cc4)C(C)(C)C)CC[C@]3(C)CC[C@]12C [NR-V04]
- histology (H&E) of kidney, liver and small intestine ([1]; male and female mice, day 42): did not induce tissue damage
- body weight ([1]; male and female mice, two doses of 2 mg/kg and two doses of 5 mg/kg over 2 wk, 42 days): no significant change in body weight
- hematological parameters (complete blood counts) ([1]; two doses of 2 mg/kg and two doses of 5 mg/kg, day 0, 7, 14, 42): no significant changes in hematological parameters
- tumor growth (MC38 tumors; MC38 in NSG mice, 1.8 mg/kg i.p.): failed to inhibit tumor growth
- tumor growth (MC38 tumors; MC38 in WT mice, 1.8 mg/kg NR-V04 or 0.75 mg/kg celastrol i.p. twice a week from day 7): effectively inhibited tumor growth
- CD8^+ Texh cells in vivo (MC38 tumors; MC38 tumors): did not observe a significant decrease in CD8^+ Texh cells
